The values below come from ChEMBL document CHEMBL1158635, “Antitrypanosomal alkaloids from Polyalthia suaveolens (Annonaceae): their effects on three selected glycolytic enzymes of Trypanosoma brucei” (Bioorg Med Chem Lett, 2010).

Structures are written as SMILES. Calls of active or inactive are those of the source. The rule behind the calls is not given here.

In series [1] the target is T1, Fructose-bisphosphate aldolase A (Oryctolagus cuniculus, UniProt P00883).
T1 sequence (P00883 whole entry): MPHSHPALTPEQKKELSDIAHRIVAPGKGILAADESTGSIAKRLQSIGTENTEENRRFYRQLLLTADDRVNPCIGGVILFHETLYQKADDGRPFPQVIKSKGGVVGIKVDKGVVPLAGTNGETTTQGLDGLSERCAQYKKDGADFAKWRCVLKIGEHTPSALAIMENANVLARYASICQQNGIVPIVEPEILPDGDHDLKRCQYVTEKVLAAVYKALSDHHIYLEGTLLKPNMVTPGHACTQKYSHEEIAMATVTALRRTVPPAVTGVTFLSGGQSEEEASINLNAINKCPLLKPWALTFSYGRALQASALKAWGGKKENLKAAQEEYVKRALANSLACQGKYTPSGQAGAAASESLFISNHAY
Description: Inhibition of rabbit muscle aldolase.

For series [2], the target named is T2, ATP-dependent 6-phosphofructokinase, muscle type (Oryctolagus cuniculus) (UniProt P00511).
T2 sequence (whole entry): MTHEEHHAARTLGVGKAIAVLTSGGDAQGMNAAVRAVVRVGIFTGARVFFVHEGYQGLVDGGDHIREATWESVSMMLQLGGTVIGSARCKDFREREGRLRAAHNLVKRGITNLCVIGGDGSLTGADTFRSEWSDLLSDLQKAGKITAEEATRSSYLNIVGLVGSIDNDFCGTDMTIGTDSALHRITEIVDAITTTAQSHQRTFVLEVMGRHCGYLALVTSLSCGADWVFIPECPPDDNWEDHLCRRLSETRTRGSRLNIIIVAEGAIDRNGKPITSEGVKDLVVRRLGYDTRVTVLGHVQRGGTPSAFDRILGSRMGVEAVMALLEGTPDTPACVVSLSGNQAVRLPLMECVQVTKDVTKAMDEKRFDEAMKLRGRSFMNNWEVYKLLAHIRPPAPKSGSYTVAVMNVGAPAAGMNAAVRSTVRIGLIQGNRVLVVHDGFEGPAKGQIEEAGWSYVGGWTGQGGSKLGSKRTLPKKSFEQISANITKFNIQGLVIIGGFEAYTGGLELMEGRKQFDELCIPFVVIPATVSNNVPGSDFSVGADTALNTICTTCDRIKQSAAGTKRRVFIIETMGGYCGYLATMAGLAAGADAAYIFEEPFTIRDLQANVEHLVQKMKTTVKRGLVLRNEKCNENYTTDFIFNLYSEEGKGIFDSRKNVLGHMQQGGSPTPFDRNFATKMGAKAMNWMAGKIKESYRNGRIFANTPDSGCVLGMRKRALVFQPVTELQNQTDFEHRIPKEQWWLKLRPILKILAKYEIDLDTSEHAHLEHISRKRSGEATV
Description: Inhibition of rabbit muscle PFK at 500 uM.

A short description of series [3]: Mixed-type reversible inhibition of Trypanosoma brucei GAPDH expressed in Escherichia coli using NAD+ by spectrophotometry analysis.
For series [4], the target named is Glyceraldehyde-3-phosphate dehydrogenase (Oryctolagus cuniculus, UniProt P46406). Description: Inhibition of rabbit muscle GAPDH.
The target in series [5] is T3, ATP-dependent 6-phosphofructokinase (Trypanosoma brucei, UniProt O15648).
T3 sequence (O15648 whole entry): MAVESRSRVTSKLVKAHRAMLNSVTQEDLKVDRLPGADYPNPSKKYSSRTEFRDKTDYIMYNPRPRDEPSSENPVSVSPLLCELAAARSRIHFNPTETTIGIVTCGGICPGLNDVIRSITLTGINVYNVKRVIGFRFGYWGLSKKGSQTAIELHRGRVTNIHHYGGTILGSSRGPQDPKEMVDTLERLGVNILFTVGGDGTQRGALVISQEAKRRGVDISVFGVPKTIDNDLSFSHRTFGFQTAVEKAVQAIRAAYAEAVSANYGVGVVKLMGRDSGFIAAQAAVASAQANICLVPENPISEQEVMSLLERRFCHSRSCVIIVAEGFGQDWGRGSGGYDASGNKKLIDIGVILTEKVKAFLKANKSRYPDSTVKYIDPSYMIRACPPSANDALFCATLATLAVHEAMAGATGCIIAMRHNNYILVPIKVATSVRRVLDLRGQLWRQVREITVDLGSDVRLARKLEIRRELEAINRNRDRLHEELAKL
Description: Inhibition of Trypanosoma brucei PFK expressed in Escherichia coli.

The nature of series [6]: Inhibition of Trypanosoma brucei aldolase expressed in Escherichia coli.
Series [7] can be described thus: Selectivity ratio of IC50 for rabbit muscle aldolase to IC50 for Trypanosoma brucei aldolase. The series is classed as tissue-based. The following applies: Muscle tissue.
The next series concerns MRC5. Description: Cytotoxicity against human MRC5 cells after 72 hrs by Alamar blue staining. The series is classed as cell-based. The following applies: mrc5, 72 h. A general note: Alamar Blue is a resazurin reagent that responds to reducing activity.
Series [8] concerns Trypanosoma brucei brucei. Briefly: Antitrypanosomal activity against Trypanosoma brucei brucei 427 bloodstream form after 72 hrs by LILIT method. The series is classed as functional. The note with it: for EC50: Trypanosoma brucei, 427, 72 h, read-out: ED50 (the source's name).
Series [9] is described as follows: Mixed-type reversible inhibition of Trypanosoma brucei GAPDH expressed in Escherichia coli at enzyme substrate complex by spectrophotometry analysis.
A short description of series [10]: Inhibition of Trypanosoma brucei GAPDH expressed in Escherichia coli.
For series [11], the system named is Trypanosoma brucei. Description: Inhibition of Trypanosoma brucei GAPDH expressed in Escherichia coli at 278 uM.
For series [12], the target named is Glyceraldehyde-3-phosphate dehydrogenase (Oryctolagus cuniculus) (UniProt P46406). Description: Inhibition of rabbit muscle GAPDH at 69 uM.
For series [13], the target named is T4, ATP-dependent 6-phosphofructokinase (Trypanosoma brucei) (UniProt O15648).
T4 sequence (whole entry): T3 sequence (O15648 whole entry)
Description: Inhibition of Trypanosoma brucei PFK expressed in Escherichia coli at 690 uM.

Series [14] has as its system Trypanosoma brucei. Briefly: Inhibition of Trypanosoma brucei aldolase expressed in Escherichia coli at 140 uM.
The target in series [15] is T2, ATP-dependent 6-phosphofructokinase, muscle type (Oryctolagus cuniculus). Briefly: Inhibition of rabbit muscle PFK at 690 uM.
Series [16] has as its target T5, Fructose-bisphosphate aldolase A (Oryctolagus cuniculus) (UniProt P00883).
T5 sequence (whole entry): T1 sequence (P00883 whole entry)
Description: Inhibition of rabbit muscle aldolase at 280 uM.

In series [17] the target is T4, ATP-dependent 6-phosphofructokinase (Trypanosoma brucei). Briefly: Ratio of Ki/Km for Trypanosoma brucei PFK expressed in Escherichia coli using fructose-6-phosphate by spectrophotometry analysis.
Series [18] deals with Trypanosoma brucei. Description: Inhibition of Trypanosoma brucei aldolase expressed in Escherichia coli at 100 uM.
Series [19] has as its target T2, ATP-dependent 6-phosphofructokinase, muscle type (Oryctolagus cuniculus). Description: Inhibition of rabbit muscle PFK at 170 uM.
The target in series [20] is Glyceraldehyde-3-phosphate dehydrogenase (Oryctolagus cuniculus) (UniProt P46406). Description: Inhibition of rabbit muscle GAPDH at 3000 uM.
The target in series [21] is T3, ATP-dependent 6-phosphofructokinase. Briefly: Competitive reversible inhibition of Trypanosoma brucei PFK expressed in Escherichia coli using fructose-6-phosphate by spectrophotometry analysis.
Series [22] addresses T2, ATP-dependent 6-phosphofructokinase, muscle type (Oryctolagus cuniculus). Description: Inhibition of rabbit muscle PFK at 94 uM.

Sequence of Glyceraldehyde-3-phosphate dehydrogenase (Oryctolagus cuniculus) (P46406 whole entry, looked up): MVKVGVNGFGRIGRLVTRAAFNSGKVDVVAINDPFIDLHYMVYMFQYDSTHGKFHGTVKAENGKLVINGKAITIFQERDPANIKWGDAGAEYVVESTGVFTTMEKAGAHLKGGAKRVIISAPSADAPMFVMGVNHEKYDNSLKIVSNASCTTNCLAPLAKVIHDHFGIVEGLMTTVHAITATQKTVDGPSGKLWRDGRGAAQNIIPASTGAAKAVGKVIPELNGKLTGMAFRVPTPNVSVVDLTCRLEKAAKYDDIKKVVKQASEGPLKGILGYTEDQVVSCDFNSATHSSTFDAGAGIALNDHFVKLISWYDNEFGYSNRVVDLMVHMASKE
Sequence of Glyceraldehyde-3-phosphate dehydrogenase (P46406 whole entry): as the sequence (P46406 whole entry, looked up) above

The term IC50 denotes the concentration that inhibits the measured activity by half. In general, inhibition refers to the share of the control response that was lost under treatment. One may read the Ki as a dissociation constant, usually derived from enzyme kinetics or from competition with a known ligand. Low values mean a stronger hold on the target, high ones a looser hold on the target. On to `CC1(C)[C@H](O)CC[C@]2(C)[C@@H]3C[C@@H]4Nc5ccccc5[C@@H]4[C@]3(C)CC[C@@H]12` [POLYVEOLINE], for which the IC50 stood at 270 µM in [1]; 620 µM in series [4]; 30 µM in series [5]; 80 µM in [6]; 110 µM in series [10]. In addition, in series [2], the inhibition result is “inactive”. Besides, the values for the Ki in series [3] and in [9] were 18 µM and 50 µM, respectively. In addition, in [7], the Ratio IC50 was 3. Also, the Activity result in the series with MRC5 was “Toxic”. Further, in [8], the EC50 amounted to 54 µM.
Turning to `CC(=O)N1c2ccccc2[C@H]2[C@@H]1C[C@@H]1[C@@]2(C)CC[C@H]2C(C)(C)[C@H](O)CC[C@]12C`, the inhibition with Trypanosoma brucei [11] amounted to 10%; in series [12], 10%; in [13] it was 28%; in the series on Trypanosoma brucei [14], 11%; in series [15], 12%. The Activity entry in the series on MRC5 is on record as “Toxic”. The EC50 in series [8] was 32 µM. Besides, the inhibition entry in series [16] was “inactive”.
Regarding `CC1(C)C(=O)CC[C@]2(C)[C@H]3Cc4cc5ccccc5n4[C@]3(C)CC[C@@H]12`, the Ki/Km in series [17] was 0.05. Also, in the series with MRC5, the Activity result is on record as “Toxic”.
In the case of `CC1(C)C(=O)CC[C@]2(C)C3Cc4cc5ccccc5n4[C@]3(C)CC[C@@H]12` (stereo partly specified), the 50% inhibitory concentration (IC50) amounted to 87 µM in series [1], 20 µM in series [5] and 1050 µM in series [10]. The figures for the inhibition (with Trypanosoma brucei [18]; in [19]) were 8% and 18%, respectively. Besides, the inhibition result in series [20] is “inactive”. Further, the EC50 in series [8] was determined as 18 µM. Also, the Ki in series [21] was found to be 10 µM.
As to `CC(=O)O[C@H]1CC[C@]2(C)[C@H]3Cc4cc5ccccc5n4[C@]3(C)CC[C@H]2C1(C)C`, the concentration for half-maximal inhibition (IC50) in series [1] was determined as 150 µM; in series [4] it was 2050 µM; in series [5], 170 µM; in series [6], 0.5 µM; in series [10], 110 µM. Also, the Activity result in the series on MRC5 is recorded as “Toxic”. Besides, the ED50 entry in series [8] was “inactive”. The inhibition in series [22] was found to be 16%.
Take `CC1(C)C(=O)CC[C@@]2(C)[C@H]1CC[C@]1(C)[C@H]2Cc2cc3ccccc3n21` [POLYSIN]: the Ki/Km in series [17] was 0.05. For the same molecule, the Activity result in the series on MRC5 is “Toxic”. Further, in [21], the Ki came out at 9 µM.
Take `Nc1nc(N)nc(Nc2ccc([As]3SCC(CO)S3)cc2)n1` (stereo unspecified) [MELARSOPROL]: the EC50 in series [8] is 0.00395 µM.
